Target: T1, recombinant human 11 β-HSD1 (Homo sapiens, UniProt P28845)
T1 construct: made in house; host or cells: E. coli
Assay: 11 β-HSD1 SPA Assay (Scintillation Proximity Assay)
Assay type: biochemical
Summary of the method: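 Scintillation proximity read-out of cortisol formed from 40 nM [3H]cortisone by purified recombinant human enzyme (30-100 nM, E. coli) with 1 mM NADPH, pH7.4, 2 hours at room temperature; beads with cortisol antibody and glycyrrhetinic acid stop the reaction, read next day. IC50 derived from inhibition normalised to background and maximal wells.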

T1 sequence (P28845 whole entry): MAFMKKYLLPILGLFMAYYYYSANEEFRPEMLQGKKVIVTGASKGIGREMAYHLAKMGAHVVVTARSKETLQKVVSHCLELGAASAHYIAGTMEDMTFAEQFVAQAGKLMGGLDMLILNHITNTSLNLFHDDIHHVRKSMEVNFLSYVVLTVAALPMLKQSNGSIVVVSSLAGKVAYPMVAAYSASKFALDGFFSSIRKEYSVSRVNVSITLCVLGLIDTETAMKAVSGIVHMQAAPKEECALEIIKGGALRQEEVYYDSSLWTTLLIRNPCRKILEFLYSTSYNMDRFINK

| SMILES | IC50 |
| --- | --- |
| CC(C)(C(=O)N[C@H]1C[C@H]2CC[C@@H](C1)N2c1ccc(C(=O)NC2CC2)cn1)c1cccc(Cl)c1 [Example 25, 6-(3-endo-{[2-(3-chlorophenyl)-2-methylpropanoyl]amino}-8-azabicyclo[3.2.1]oct-8-yl)-N-cyclopropylpyridine-3-carboxamide] | < 200 nM |
| CC(=O)c1ccc(N2[C@@H]3CC[C@H]2C[C@@H](NC(=O)C(C)(C)Oc2ccc(Cl)cc2Cl)C3)nc1 [Example 87, N-[8-(5-acetylpyridin-2-yl)-8-azabicyclo[3.2.1]oct-3-endo-yl]-2-[(2,4-dichlorophenyl)oxy]-2-methylpropanamide] | < 200 nM |
| CC(C)(Oc1ccc(F)c(F)c1)C(=O)N[C@H]1C[C@H]2CC[C@@H](C1)N2c1ccc(S(C)(=O)=O)cn1 [Example 207, 2-[(3,4-difluorophenyl)oxy]-2-methyl-N-{8-[5-(methylsulfonyl)pyridin-2-yl]-8-azabicyclo[3.2.1]oct-3-endo-yl}propanamide] | < 2000 nM |
| O=C(NC1CC1)c1ccc(N2[C@@H]3CC[C@H]2C[C@@H](NC(=O)C2(Oc4ccc(Cl)cc4)CCC2)C3)nc1 [Example 47, 6-{3-endo-[({1-[(4-chlorophenyl)oxy]cyclobutyl}carbonyl)amino]-8-azabicyclo[3.2.1]oct-8-yl}-N-cyclopropylpyridine-3-carboxamide] | < 200 nM |
| CC(C)(Oc1ccc(Cl)cc1C(F)(F)F)C(=O)N[C@H]1C[C@H]2CC[C@@H](C1)N2c1ccc(-c2nnn[nH]2)nc1 [Example 306, 2-{[4-chloro-2-(trifluoromethyl)phenyl]oxy}-2-methyl-N-{8-[6-(1H-tetrazol-5-yl)pyridin-3-yl]-8-azabicyclo[3.2.1]oct-3-endo-yl}propanamide] | < 200 nM |
| CC(C)(Oc1ccc2ccccc2c1Cl)C(=O)N[C@H]1C[C@H]2CC[C@@H](C1)N2c1ccc(C(N)=O)cn1 [Example 271, 6-[3-endo-({2-[(1-chloronaphthalen-2-yl)oxy]-2-methylpropanoyl}amino)-8-azabicyclo[3.2.1]oct-8-yl]pyridine-3-carboxamide] | < 200 nM |
| CC(C)(Oc1ccc(Cl)c(Cl)c1)C(=O)N[C@H]1C[C@H]2CC[C@@H](C1)N2c1ccc(C(=O)NCC(F)(F)F)cc1 [Example 166, 4-[3-endo-({2-[(3,4-dichlorophenyl)oxy]-2-methylpropanoyl}amino)-8-azabicyclo[3.2.1]oct-8-yl]-N-(2,2,2-trifluoroethyl)benzamide] | < 200 nM |
| CC(Oc1ccc(Cl)cc1)C(=O)N[C@H]1C[C@H]2CC[C@@H](C1)N2c1ccc(C(=O)NC2CC2)cn1 (stereo partly drawn) [Example 49, 6-[3-endo-({2-[(4-chlorophenyl)oxy]propanoyl}amino)-8-azabicyclo[3.2.1]oct-8-yl]-N-cyclopropylpyridine-3-carboxamide] | < 2000 nM |
| CC(C)(Oc1ccc(F)cc1F)C(=O)N[C@H]1C[C@H]2CC[C@@H](C1)N2c1ccc(S(N)(=O)=O)cn1 [Example 294, N-{8-[5-(aminosulfonyl)pyridin-2-yl]-8-azabicyclo[3.2.1]oct-3-endo-yl}-2-[(2,4-difluorophenyl)oxy]-2-methylpropanamide] | < 200 nM |
| CC(C)(Oc1ccc(Cl)cc1Cl)C(=O)N[C@H]1C[C@H]2CC[C@@H](C1)N2c1ccc(C(N)=O)cn1 [Example 56, 6-[3-endo-({2-[(2,4-dichlorophenyl)oxy]-2-methylpropanoyl}amino)-8-azabicyclo[3.2.1]oct-8-yl]pyridine-3-carboxamide] | < 200 nM |
| CC(C)(Oc1ccc(F)c(Cl)c1)C(=O)N[C@H]1C[C@H]2CC[C@@H](C1)N2c1ccc(S(C)(=O)=O)cc1 [Example 228, 2-[(3-chloro-4-fluorophenyl)oxy]-2-methyl-N-{8-[4-(methylsulfonyl)phenyl]-8-azabicyclo[3.2.1]oct-3-endo-yl}propanamide] | < 2000 nM |
| CC(C)(Oc1ccc(Cl)c(F)c1)C(=O)N[C@H]1C[C@H]2CC[C@@H](C1)N2c1ccc(S(C)(=O)=O)cn1 [Example 240, 2-[(4-chloro-3-fluorophenyl)oxy]-2-methyl-N-{8-[5-(methylsulfonyl)pyridin-2-yl]-8-azabicyclo[3.2.1]oct-3-endo-yl}propanamide] | < 200 nM |
